# Source: PubChem BioAssay AID977607 (Broad Institute, 2014)
# Values joined by “and” are separate entries in the source; they are usually repeats but may differ in a detail not shown here. Identical values can stand only once. Active and inactive are the calls of the source.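 Rule for the calls: active = curve reaches 40% activation over neutral controls at an AC40 no higher than the top valid tested concentration; inconclusive = no clear call, values can overlap the other calls; inactive = signal moving opposite to the expected increase, and the rest.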
# Test system: INS-1E GLuc insulin secretion reporter, luminescence, 2-3 h
# Test: GLuc-reported insulin release enhancers, glucose-stimulated beta cells – cell-based, INS-1E, Gaussia luciferase, luminescence, cherry-pick, set 2, dose response (AID 977607)
row,Compound,AC40
1,O=C(Nc1ccc2c(c1)OCO2)N1C[C@@H]2N[C@H](C1)C2c1ccc(C=Cc2ccccc2)cc1 (some centres undefined),9.05 µM
2,O=C(NCC1OCCc2ccccc21)c1ccc(NC(=O)c2ccc(Cl)cc2)cc1 (centres undefined),5.18 µM
3,O=c1[nH]nc(-c2ccccc2)c2ccccc12,22.5 µM
4,CC1(Cc2cc(Cl)ccc2C(F)(F)F)C(=O)Nc2cc(C(F)(F)F)ccc21 (centres undefined),34 µM
5,COc1ccc(C(CCNCc2ccc(OC(C)C)cc2)C(C)C)cc1 (centres undefined),21.7 µM
6,COc1ccccc1CCn1cnc(-c2ccc(F)cc2)c1CC(C)C,7.14 µM
7,C=C(C)C1Cc2c(C)nn(-c3cccc4cccnc34)c2C1 (centres undefined),2.1 µM
8,CC(=NC(C)c1ccccc1)c1c(O)[nH]c(=O)[nH]c1=O (centres undefined),15 µM
9,CC(NCC(O)COCCC12CC3CC(CC(C3)C1)C2)c1ccccc1 (centres undefined),14.9 µM
10,CNC[C@H](CC1CCCCC1)NC[C@H](Cc1ccccc1)NCCC12CC3CC(CC(C3)C1)C2,8.32 µM
11,COc1nc(N2CCOCC2)nc(-n2cccc2)n1,0.937 µM
12,CCOc1ccc2nc(NCCNC(=O)Nc3ccccc3)c(C#N)cc2c1,5.63 µM
13,COCCNc1nc(Oc2cncc(Cl)c2)c2sccc2n1,2.88 µM
14,CC(C)(C)OC(=O)N[C@@H](Cc1ccccc1)c1nnc(S(=O)(=O)Cc2ccccc2)o1,3.69 µM
15,CCCCc1c(-c2ccccc2OC)ncn1CCc1ccccc1,16.7 µM
16,O=C(NC1CCCCC1)C(c1ccc(F)cc1)N(Cc1ccccc1)C(=O)CN1C(=O)c2ccccc2S1(=O)=O (centres undefined),27.1 µM
17,CCOc1cc(N2CCOCC2)c(OCC)cc1NC(=O)COC(=O)c1cc2ccccc2cc1O,10.3 µM
18,COc1ccc(-c2cc3ccccc3oc2=O)cc1NC(=S)NC(=O)c1ccc2c(c1)OCCO2,4.75 µM
19,CCOC(=O)c1c(NC(=O)Cn2nc(C(F)(F)F)cc2C)sc(C)c1C,9.34 µM
20,Cc1ccc(NC(=O)CNC(=O)c2sc3ccccc3c2Cl)nc1,14.3 µM
21,Cc1ccc2nc(Cl)nc(-c3ccccc3)c2c1,12.2 µM
22,OC(c1ccccc1)(c1ccccc1)C1CCN(CCCOc2ccc(-c3ccc(F)cc3F)cc2)CC1,3.89 µM
23,Cc1ccc(-n2sc3cc(F)ccc3c2=O)c(C)c1,1.94 µM
24,Cc1ccc(C)c(C(=O)Nc2nc3ccccc3[nH]2)c1,8.78 µM
25,CC(=O)Oc1ccc(Cl)cc1/C=C/c1ccc2ccccc2n1,24.9 µM
26,CCC(=O)Nc1ccc(NC(=S)NC(=O)c2oc3ccccc3c2C)cc1,5.76 µM
27,C/C=C/c1ccc(C2[C@H]3CNC[C@@H]2N3Cc2cc(-c3ccccc3)on2)cc1 (some centres undefined),9.74 µM

row,Compound,AC40
1,COc1ccc(C(=O)C2CCCN(C(=O)c3n[nH]c4c3CCCC4)C2)cc1OC (centres undefined),3.89 µM
2,O=C(Cn1c(COc2ccccc2)nc2ccccc21)Nc1cc(Cl)cc(Cl)c1,10.9 µM
3,COc1cccc(OCc2nc3c4cnn(-c5ccccc5)c4ncn3n2)c1,8.5 µM
4,CCOc1ncccc1C(=O)Nc1ccc(S(=O)(=O)Nc2nc(C)cc(C)n2)cc1,33.2 µM
5,Cc1ccc(-c2ccc(C3[C@@H]4CN(C(=O)Nc5ccc(C(F)(F)F)cc5)C[C@H]3N4)cc2)cc1 (some centres undefined),4.06 µM and 2.82 µM
6,CCCCCCn1c(-c2cccs2)n[nH]c1=S,> 35 µM (inactive)
7,Oc1ccccc1C1SC(c2ccccc2O)SC(c2ccccc2O)S1 (centres undefined),6.08 µM
8,OC(c1ccccc1)(c1ccccc1)C1CCN(CCCOc2ccc3c(c2)CCCC3)CC1,6.92 µM
9,CC1(C(=O)NS(=O)(=O)c2ccccc2Cl)CCN1C(=O)C1(c2ccccc2)CCCC1 (centres undefined),19.3 µM
10,CCN=C1NC(c2ccc(C(F)(F)F)cc2)C(C(=O)OC)=C(C)N1Cc1cccc(C(F)(F)F)c1 (centres undefined),14.3 µM
11,CCc1nc(N)nc2c1C(=O)CC(C)(C)C2,> 35 µM (inactive)
12,O=C(Nc1ccc(SC(F)F)cc1)c1cccc2nc3ccccc3nc12,9.11 µM
13,N#Cc1cccc(-c2ccc(C3[C@H]4CNC[C@@H]3N4Cc3cc(-c4ccccc4)on3)cc2)c1 (some centres undefined),12 µM
14,FC(F)(F)c1cc(CCN2CCNC[C@H]2Cc2cccc3ccccc23)cc(C(F)(F)F)c1,7.24 µM
15,COc1ccc(C2=NN(c3ccc(C(=O)O)cc3)C(c3ccc(OC)c(OC)c3)C2)cc1 (centres undefined),4.29 µM
16,COc1ccc(NC(=O)c2sc3nc(N4CCOCC4)c4c(c3c2N)CC(C)(C)OC4)c(OC)c1,6.55 µM
17,Cc1cccc(-c2ccc(C3[C@@H]4CN(Cc5cccc(F)c5)C[C@H]3N4)cc2)c1 (some centres undefined),12.3 µM and 2.97 µM
18,CC(=O)N(/N=C/c1cccc(C)c1)c1nc(-c2ccc(Br)cc2)cs1,5.72 µM
19,CS(=O)(=O)c1ccc2nc(NC(=O)Nc3ccc(Cl)c(Cl)c3)sc2c1,4.78 µM
20,CCOc1ccc(CCNC(=O)COc2cc(=O)n(C)c3ccccc23)cc1OCC,22.6 µM
21,Cc1ccc2nc(-c3ccc(NC(=O)COC(=O)c4ccco4)cc3)sc2c1,4.42 µM
22,CC(=O)c1nn(-c2ccc(Br)cc2)cc1C(=O)c1ccccc1,8.45 µM
23,CC(C)(C)c1ccc(-c2cc(-c3ccccc3O)[nH]n2)cc1,6.61 µM
24,COC(=O)C1=C(C)N(Cc2cccc(C(F)(F)F)c2)C(=NCc2ccc(OC)cc2)NC1c1cccc(F)c1 (centres undefined),10.8 µM
25,NC[C@H](Cc1ccccc1)NCCc1cc(C(F)(F)F)cc(C(F)(F)F)c1,14.9 µM
26,Clc1ccc(/C=N/NC2=Nc3cccc4cccc2c34)cc1,2.13 µM
27,NC(c1csc(Nc2ccc(C(F)(F)F)cn2)n1)C1CCCCC1 (centres undefined),9.81 µM
